Data published in paper PMC8903780, “Therapeutic efficacy of an injectable formulation of purinostat mesylate in SU-DHL-6 tumour model” (Annals of Medicine, 2022).
Structures can show the parent of a compound that is named as a salt. Where two headings read alike, the source gives them in different places. Marks after values point to notes of the source that are not given here.

Tests used:
[1] = In vivo pharmacokinetics after oral or intravenous administration; conditions: SD rats, 10 mg/kg; for Cmax: read-out: maximum value (Cmax) of plasma concentration
Experimental: Adult SD rats (180–220 g) were used to investigate the in vivo kinetics of PM after oral or intravenous administration. The rats were fasted overnight and divided into oral and intravenous groups, containing three male and three female rats in each group. Then, 10 mg/kg of PM was administered in each rat. 0.2 mL of jugular vein blood samples were collected at a predetermined time interval of 0, 5, 15, 30, 60, 120, 240, 360, 480, and 600 min, centrifuged at 1500 rpm for 15 min at 4 °C to separate the plasma, and stored at −80 °C for the analysis by UPLC-MS. After the test, Phoenix WinNonlin software and non-compartmental analysis were used to calculate parameters such as maximum plasma concentration (Cmax), plasma clearance (CL), time to achieve maximum plasma concentration (Tmax), steady-state apparent distribution volume (Vdss), elimination half-life (t1/2), area under the concentration-time curve (AUC), and related bioavailability.

Ki-67 = experiment: Immunohistochemical detection of Ki-67 in tumour tissue; type: in vivo, NOD/SCID mice; conditions: immunostaining after PM treatment, SU-DHL-6 subcutaneous tumour
Text: (§1) The proliferation of tumour cells was detected by immune histochemical staining with the primary antibody of Ki-67 (Lab Vision, MA, USA). DNA double-stranded breaks were investigated by staining with the primary antibody of H2A histone family member X (γH2AX, Upstate Biotechnology, Lake Placid, NY, USA). Primary antibodies of acetyl histone H4 (Ac-H4, Upstate Biotechnology, Lake Placid, NY, USA) were used to detect the acetylation of Histone H4. FITC-labelled secondary antibodies (F-0382; Sigma) were applied with a concentration of 1:500. The images were taken with the Nikon E800 scope.

[2] = system: acetyl histone H4 (Ac-H4); experiment: Immunohistochemical detection of Ac-H4 in tumour tissue; type: in vivo, NOD/SCID mice; conditions: immunostaining after PM treatment, SU-DHL-6 subcutaneous tumour
Text: as §1

[3] = Phase solubility analysis of PM in HP-β-CD solutions; type: physicochemical; conditions: inclusion of PM by HP-β-CD
Experimental: Excess PM were added into 6 mL HP-β-CD solutions ranged from 0 to 150 mg/mL [14, 19]. The mixture solution was stirred at 1000 rpm for 24 h at 37 °C and filtered using 0.22 μm Millipore filtration. The apparent solubility of PM was calculated, and the stability constant (Ks) was calculated as the Higuchi-Connors equation, Equation (a). The Gibbs free energy (ΔG) was calculated as Equation (b), R represents the general gas constant and T represents the Kelvin temperature. (a) Ks=slope/(S0×(1–slope)) (b) ΔG=−RTlnKs

[4] = system: human double-hit lymphoma SU-DHL-6 cell line xenografts; experiment: Oral versus intravenous administration study in SU-DHL-6 xenografts; conditions: for Number End/begin / RTV / Tumor Weight (g) X ±SD / Tumor Weight Inhibition (%) / Tumor volume T/C% / animal status / deaths: 16 days; for Body weight (g) X ± SD Begin / Tumor volume (mm^3) X ±SD Begin: begin of treatment; for Body Weight (g) X ±SD End / Tumor volume (mm^3) X ±SD End: end of 16 days treatment; for animal status / deaths: 10 mg/kg
Experimental: To determine whether PM is suitable for oral or intravenous administration, the anti-tumor activity and the safety were investigated in a human double-hit lymphoma SU-DHL-6 cell line xenografts established in immunodeficiency mice. Each mouse was injected subcutaneously with 0.1 mL of cell suspension containing 1×10^6 cells. […] Tumor size and body weight were measured during the experimental period and the tumor volumes were calculated according to the formula: volume (mm^3) = length × width^2 × 0.5. When the experimental period was over, all the mice were sacrificed, and the tumor was weighed and photographed.

[5] = system: SU-DHL-6 subcutaneous tumours; experiment: Survival study in satellite groups of the SU-DHL-6 subcutaneous model; type: in vivo, NOD/SCID mice; conditions: long-term treatment, death criterion tumour volume 3000 mm^3 or death
Experimental: (§2) To better determine the anti-tumour activity of the PM/HP-β-CD complex, the SU-DHL-6 cell line xenografts were established in immunodeficiency mice. The NOD/SCID mice were subcutaneously inoculated 7 × 10^6 cells per mouse. […] A mimic of HyperCVAD regimen, standard chemotherapy for B cell lymphoma ([22],[23]), especially aggressive subtypes, for example, double-hit lymphoma, was set as a positive control group for comparison (Table 2). Satellite groups were set up in the 10 mg/kg group, 20 mg/kg group, and the Hyper-CVAD group. Animals in the satellite groups were not sacrificed at the end of the treatment and underwent long-term treatment for further investigation. In the survival study, the animal mortality criterion was that the tumour volume reached 3000 mm^3 or the individual animal died, and the animal survival time was statistically analysed.

[6] = system: human double-hit lymphoma SU-DHL-6 xenograft tumours; type: in vivo
Experimental: as §2
When the experimental period was over, the tumour was weighed and photographed, the main organs and tumours were collected, fixed, and embedded in paraffin for Histological and immunohistochemical analysis.

SU-DHL-6 cells [7] = experiment: Annexin V-FITC/PI flow cytometry apoptosis assay; type: cell-based, human; conditions: 48 h
Experimental: The pro-apoptotic effect of the PM/HP-β-CD complex on SU-DHL-6 cells was investigated by flow cytometry. […] cells in good condition were collected and inoculated in the six-well plate with 2⋄10^5 cells per well. After being cultured for 24 h, cells were treated with PM and PM/HP-β-CD inclusion at 3 nM and 6 nM, using LBH589 at 6 nM as the positive control. The cells without drug treatment were the negative control. After 48 h incubation, the cells were then processed by annexin V-FITC/PI staining as the manufacturer’s instructions (KeyGen, 100 assays).

SU-DHL-6 cells [8] = experiment: In vitro cytotoxicity study (MTT); type: cell-based; conditions: Homo sapiens, 48 h
Experimental: To investigate the anti-tumour proliferation effect of PM/HP-β-CD, in vitro cytotoxicity test was performed. After being seeded with 96-well plates, the in vitro cultured cells were allowed to acclimate for about 1 h. The experimental group was added with 100 μL of medium containing free PM, HP-β-CD, or PM/HP-β-CD with different concentrations, and the control group was added with an equal volume of fresh medium. Each group was set up with 3 parallel holes and a cultured incubator with 5% CO2 at 37 °C. At 48 h, the survival rate of each group was calculated with the MTT method, and the IC50 value was fitted.

γH2AX = experiment: Immunohistochemical detection of γH2AX in tumour tissue; type: in vivo, NOD/SCID mice; conditions: immunostaining after PM treatment, SU-DHL-6 subcutaneous tumour
Text: as §1

[9] = both sexes, rat, plasma, intravenous administration
[10] = both sexes, rat, plasma, oral administration
[11] = positive control groups, dose column – (RTX 10 mg/kg), 14 days
[12] = positive control groups, dose column – (RTX 10 mg/kg), begin of treatment
[13] = positive control groups, dose column – (RTX 10 mg/kg), end of 14 days treatment

Compound: CN(Cc1nc2c(N3CCOCC3)nc(-c3ccc(N)cc3)nc2n1C)c1ncc(C(=O)NO)cn1 [PM, Purinostat mesylate]
- CL ([1]; p.o.): 7280 ± 3290.7 mL/min/kg
- Tmax ([1]; both sexes, rat, plasma, iv): 4.67 min
- clearance ([1]; both sexes, rat, plasma, iv): 225 mL/min/kg
- half-life ([1]; both sexes, rat, plasma, iv): 20.4 ± 19.7 min
- Tmax ([1]; both sexes, rat, plasma, po): 5.67 min
- half-life ([1]; both sexes, rat, plasma, po): 97.2 ± 41.5 min
- AUC [1, 9]: 837 ± 277 ng·h/mL
- Cmax [1, 9]: 3140 ± 1320 ng/mL
- AUC [1, 10]: 56.2 ± 24.6 ng·h/mL
- Cmax [1, 10]: 49.3 ± 26.4 ng/mL
- bioavailability ([1]; both sexes, rat, plasma, oral versus intravenous, read-out: calculated bioavailability): 6.71%
- expression of Ki-67 in tumour tissue (Ki-67): decreased
- expression of Ac-H4 in tumour tissue [2]: increased
- Gibbs free energy [3]: -5.055 kcal/mol
- Number End/begin ([4]; i.v. 10 mg/kg (PM/HP-β-CD)): 8/8
- RTV ([4]; i.v. 10 mg/kg (PM/HP-β-CD)): 6.84^cfi
- Tumor Weight (g) X ±SD ([4]; i.v. 10 mg/kg (PM/HP-β-CD)): 1.51±0.49^cfi g
- Tumor Weight Inhibition (%) ([4]; i.v. 10 mg/kg (PM/HP-β-CD)): 69.96%
- Tumor volume T/C% ([4]; i.v. 10 mg/kg (PM/HP-β-CD)): 30.87%
- Body weight (g) X ± SD Begin ([4]; i.v. 10 mg/kg (PM/HP-β-CD)): 22.6 ± 1.7 g
- Tumor volume (mm^3) X ±SD Begin ([4]; i.v. 10 mg/kg (PM/HP-β-CD)): 194.6±26.1 mm^3
- Body Weight (g) X ±SD End ([4]; i.v. 10 mg/kg (PM/HP-β-CD)): 24.9 ± 1.9 g
- Tumor volume (mm^3) X ±SD End ([4]; i.v. 10 mg/kg (PM/HP-β-CD)): 1321.9±317.2 mm^3
- animal status / deaths ([4]; oral group): one of the PM oral groups died
- Number End/begin ([4]; p.o. 10 mg/kg (PM suspension)): 7/8
- RTV ([4]; p.o. 10 mg/kg (PM suspension)): 16.71^a
- Tumor Weight (g) X ±SD ([4]; p.o. 10 mg/kg (PM suspension)): 4.57 ± 0.99 g
- Tumor Weight Inhibition (%) ([4]; p.o. 10 mg/kg (PM suspension)): 9.16%
- Tumor volume T/C% ([4]; p.o. 10 mg/kg (PM suspension)): 75.46%
- Body weight (g) X ± SD Begin ([4]; p.o. 10 mg/kg (PM suspension)): 21.6 ± 1.2 g
- Tumor volume (mm^3) X ±SD Begin ([4]; p.o. 10 mg/kg (PM suspension)): 199.5±22.5 mm^3
- Body Weight (g) X ±SD End ([4]; p.o. 10 mg/kg (PM suspension)): 24.9 ± 3.0 g
- Tumor volume (mm^3) X ±SD End ([4]; p.o. 10 mg/kg (PM suspension)): 3300.6±715.1 mm^3
- animal status / deaths ([4]; venous group): did not have animals in abnormal status
- Median survival (day) ([5]; PM for Injection 10 mg/kg): 30^bei day
- Median survival (day) ([5]; PM for Injection 20 mg/kg): 30 ^bei day
- Body weight (g) X ± SD Begin ([6]; mouse, in vivo, iv, 2.5 mg/kg): 22.0 ± 0.3 g
- Number End/begin ([6]; mouse, in vivo, iv, 2.5 mg/kg): 7/7
- RTV ([6]; mouse, in vivo, iv, 2.5 mg/kg): 14.21^begkmp
- Tumour volume (mm^3) X ± SD Begin ([6]; mouse, in vivo, iv, 2.5 mg/kg): 140.3 ± 23.7 mm^3
- Tumour volume (mm^3) X ± SD End ([6]; mouse, in vivo, iv, 2.5 mg/kg): 1970.1 ± 638.3 mm^3
- Tumour volume T/C% ([6]; mouse, in vivo, iv, 2.5 mg/kg): 54.53%
- Tumour weight (g) X ± SD ([6]; mouse, in vivo, iv, 2.5 mg/kg): 2.10 ± 0.98^cekmp g
- Tumour weight Inhibition (%) ([6]; mouse, in vivo, iv, 2.5 mg/kg): 57.35%
- Body weight (g) X ± SD Begin ([6]; mouse, in vivo, iv, 5 mg/kg): 22.3 ± 0.5 g
- Number End/begin ([6]; mouse, in vivo, iv, 5 mg/kg): 7/7
- RTV ([6]; mouse, in vivo, iv, 5 mg/kg): 8.26^cfiloq
- Tumour volume (mm^3) X ± SD Begin ([6]; mouse, in vivo, iv, 5 mg/kg): 146.2 ± 26.5 mm^3
- Tumour volume (mm^3) X ± SD End ([6]; mouse, in vivo, iv, 5 mg/kg): 1150.0 ± 510.6 mm^3
- Tumour volume T/C% ([6]; mouse, in vivo, iv, 5 mg/kg): 31.69%
- Tumour weight (g) X ± SD ([6]; mouse, in vivo, iv, 5 mg/kg): 1.39 ± 0.47^cfhlnr g
- Tumour weight Inhibition (%) ([6]; mouse, in vivo, iv, 5 mg/kg): 71.80%
- Body weight (g) X ± SD Begin ([6]; mouse, in vivo, iv, 10 mg/kg): 22.3 ± 0.5 g
- Number End/begin ([6]; mouse, in vivo, iv, 10 mg/kg): 7/7
- RTV ([6]; mouse, in vivo, iv, 10 mg/kg): 7.39 ^cfiloq
- Tumour volume (mm^3) X ± SD Begin ([6]; mouse, in vivo, iv, 10 mg/kg): 150.9 ± 32.6 mm^3
- Tumour volume (mm^3) X ± SD End ([6]; mouse, in vivo, iv, 10 mg/kg): 1084.2 ± 502.8 mm^3
- Tumour volume T/C% ([6]; mouse, in vivo, iv, 10 mg/kg): 28.37%
- Tumour weight (g) X ± SD ([6]; mouse, in vivo, iv, 10 mg/kg): 0.90 ± 0.43^cfilor g
- Tumour weight Inhibition (%) ([6]; mouse, in vivo, iv, 10 mg/kg): 81.67%
- Body weight (g) X ± SD Begin ([6]; mouse, in vivo, iv, 20 mg/kg): 22.2 ± 0.3 g
- Number End/begin ([6]; mouse, in vivo, iv, 20 mg/kg): 7/7
- RTV ([6]; mouse, in vivo, iv, 20 mg/kg): 4.31^cfilor
- Tumour volume (mm^3) X ± SD Begin ([6]; mouse, in vivo, iv, 20 mg/kg): 158.9 ± 22.6 mm^3
- Tumour volume (mm^3) X ± SD End ([6]; mouse, in vivo, iv, 20 mg/kg): 664.3 ± 190.7 mm^3
- Tumour volume T/C% ([6]; mouse, in vivo, iv, 20 mg/kg): 16.53%
- Tumour weight (g) X ± SD ([6]; mouse, in vivo, iv, 20 mg/kg): 0.73 ± 0.28 ^cfilor g
- Tumour weight Inhibition (%) ([6]; mouse, in vivo, iv, 20 mg/kg): 85.20%
- apoptotic SU-DHL-6 cells (SU-DHL-6 cells [7]; 3 nM): 14.99%
- apoptotic SU-DHL-6 cells (SU-DHL-6 cells [7]; 6 nM): 55.2%
- IC50 (SU-DHL-6 cells [8]): 1.88 nM
- expression of γH2AX in tumour tissue (γH2AX): increased

Compound: Rituximab [RTX, reference compound]
- RTV [6, 11]: 24.16
- Tumour volume T/C% [6, 11]: 92.71%
- Tumour weight (g) X ± SD [6, 11]: 3.47 ± 1.07^ad g
- Tumour weight Inhibition (%) [6, 11]: 29.47%
- Body weight (g) X ± SD Begin [6, 12]: 22.4 ± 0.4 g
- Tumour volume (mm^3) X ± SD Begin [6, 12]: 153.7 ± 33.1 mm^3
- Body Weight (g) X ±SD End [6, 13]: 25.1 ± 1.0 g
- Tumour volume (mm^3) X ± SD End [6, 13]: 3505.3 ± 917.1 mm^3
- Number End/begin ([6]; positive control groups, dose column – (RTX 10 mg/kg), regimens Table 2, 14 days): 7/7
